Data: patent US20240239792A1, “MODULATORS OF BCL-2 OR BCL-2/BCL-XL AND USES THEREOF” (APPICINE THERAPEUTICS (HK) LIMITED, priority 2021, published 2024)

What was measured:
[1] = target: T1, BCL-XL (Homo sapiens, UniProt Q07817); test: HTRF BCL-XL/BAK assay (Cisbio); type: binding; settings: recombinant human Tag1-BCL-XL 2 nM, Tag2-BAK 5 nM
T1 construct: purchased Cisbio 63ADK000CB04PEG
Protocol: (§1) Then the pre-mixed anti-Tag1-Eu^3+ and anti-tag2-XL665 were added to the plate and further incubated at room temperature for another 2 hours. The signals ([…]) were read on Envision 2104 instrument. The IC50 for each compound was derived from fitting the signal of 665/615 nM to the increasing compound concentration.
(§2) Using the above assays, the following compounds were tested.

[2] = target: T2, BCL-2 (Homo sapiens, UniProt P10415); test: HTRF BCL-2/BAK assay (Cisbio); type: binding; settings: recombinant human Tag1-BCL-2 2 nM, Tag2-BAK 10 nM
T2 construct: purchased Cisbio 63ADK000CB01PEG
Protocol: as §1, §2

[3] = test system: DOHH2 cells; test: CellTiter-Glo cell proliferation assay, DOHH2 cells; type: cell-based; settings: Homo sapiens, DOHH-2, 72 hours
Method in brief: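 GI50 derived from CellTiter-Glo luminescent viability signal. Cells grown in DMEM with 10% FBS received a compound dilution series for 72 h (37 °C, 5% CO2).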

[4] = test system: RS4;11 subcutaneous xenograft tumor; test: In vivo pharmacodynamic study, NOD/SCID RS4;11 subcutaneous xenograft tumor model; set-up: species or system NOD/SCID female mouse; settings: q.d., after 20 days dosing
Protocol: In general, NOD/SCID RS4;11 subcutaneous xenograft tumor model was established by inoculating 5*10^6/0.1 ml/mouse subcutaneously in the right back of the NOD/SCID female mouse. The animals were checked daily for any effects of treatments on behaviors such as mobility, food and water consumption, body weight gain/loss, eyes, hairs and any other abnormalities. Mortality and clinical signs observed during the study were recorded in the raw data. Animal weight and tumor size were measured every two days during the study. Tumor volume (TV) was calculated as: TV=0.5*a*b^2, wherein a and b represent the measured length and width of tumor, respectively. Relative tumor proliferation inhibition rate (TGIRTV (%)), as an indication of anti-tumor effectiveness, was calculated as: TGIRTV (%)=(1−TRTV/CRTV)*100%, wherein TRTV and CRTV were relative tumor volume (RTV) in treatment group and vehicle control group, respectively. RTV was calculated as: RTV=Vt/V0, wherein Vt and V0 represented the tumor volume measured on day t after dosing and on the first day of dosing. At the end of last dosing, plasma and tumor tissue were collected, weighed, and photographed according to requirements of the study protocol.
The TGIRTV(%) values after 20 days dosing were shown in Table 5 below, where “+++” represented TGIRTV(%)≥[…]; “++” represented 30%<TGIRTV(%)<80%. p.o. stands for “per os”; I.P. stands for “intraperitoneal”; q.d. refers to “once daily”.

[5] = target: T3, CYP2C9 (Homo sapiens, UniProt P11712); test: CYP2C9 activity assay in human liver microsomes, substrate diclofenac; type: in vitro ADME; settings: probe diclofenac, test compound 1 μM, 37° C. 10 min, read-out: Inhibition rate (%) against CYP2C9 Enzyme
T3 construct: from tissue; host or cells: human liver microsomes
Protocol: In this assay, several exemplary compounds of the present disclosure and a control compound (Venetoclax) were used as the test compounds. In general, the assay was conducted by the following steps: • 1. The solution of test compound, human liver microsomes solution, and substrate (diclofenac) solution were mixed in a 96-well assay plate on ice to, and the final concentration of each test compound is 1 μM; • 2. The 96-well assay plate and NADPH solution were pre-incubated at 37° C. for 5 minutes; • 3. NADPH solution was added to into the assay plates to initiate the reaction; • 4. The assay plate was incubated at 37° C. for 10 min; • 5. The reaction was stopped; and after quenching, a portion of the supernatant was taken from each well for LC/MS analysis; • 6. The inhibition rate was calculated by the following equation: Inhibition rate (%)=(1−Valuetest/Valuecontrol)×100%, where Valuetest refers to the LC/MS data obtained from wells with test compounds and Valuecontrol refers to the LC/MS data obtained from wells without test compound.

T1 sequence (Q07817 whole entry): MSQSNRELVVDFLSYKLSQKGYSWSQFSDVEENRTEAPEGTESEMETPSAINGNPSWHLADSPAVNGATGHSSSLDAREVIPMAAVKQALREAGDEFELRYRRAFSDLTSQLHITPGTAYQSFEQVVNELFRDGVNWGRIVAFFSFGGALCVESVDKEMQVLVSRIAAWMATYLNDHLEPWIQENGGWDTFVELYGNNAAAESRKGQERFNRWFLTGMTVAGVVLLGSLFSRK
T2 sequence (P10415 whole entry): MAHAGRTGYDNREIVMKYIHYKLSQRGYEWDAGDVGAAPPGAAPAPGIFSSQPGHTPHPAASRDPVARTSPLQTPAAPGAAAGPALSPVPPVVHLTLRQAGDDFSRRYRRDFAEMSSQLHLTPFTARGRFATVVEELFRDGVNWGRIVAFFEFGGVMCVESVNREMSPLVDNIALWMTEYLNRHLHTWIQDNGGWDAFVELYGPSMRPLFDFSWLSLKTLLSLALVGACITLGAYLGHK
T3 sequence (P11712 whole entry): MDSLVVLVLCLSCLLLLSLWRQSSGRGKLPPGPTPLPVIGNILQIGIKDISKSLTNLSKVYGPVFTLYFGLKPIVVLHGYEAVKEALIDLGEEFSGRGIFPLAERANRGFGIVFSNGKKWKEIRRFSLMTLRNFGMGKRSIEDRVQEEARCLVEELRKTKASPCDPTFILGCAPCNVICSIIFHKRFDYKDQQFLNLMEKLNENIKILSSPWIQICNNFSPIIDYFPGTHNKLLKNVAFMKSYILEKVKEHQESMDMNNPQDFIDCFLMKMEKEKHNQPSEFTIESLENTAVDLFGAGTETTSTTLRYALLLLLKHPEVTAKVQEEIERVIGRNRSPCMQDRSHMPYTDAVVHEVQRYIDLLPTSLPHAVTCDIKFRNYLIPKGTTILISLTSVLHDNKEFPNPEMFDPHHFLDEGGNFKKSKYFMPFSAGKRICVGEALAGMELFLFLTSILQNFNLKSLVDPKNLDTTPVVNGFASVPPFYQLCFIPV

Compound	IC50 [1] [nM]	IC50 [2] [nM]	GI50 [3] [nM]	TGIRTV(%) ([4]; 25 mg/kg, p.o.)	TGIRTV(%) ([4]; 60 mg/kg, p.o.)	inhibition at 10 min, 1 µM [5] [%]	TGIRTV(%) ([4]; 21 mg/kg, I.P.)
O=C(NS(=O)(=O)c1ccc(NCCN2CCOCC2)c([N+](=O)[O-])c1)c1ccc(N2CCN(C3CCCCc4c(Cl)cccc43)CC2)cc1Oc1cnc2[nH]ccc2c1 (stereo not drawn) [Compound 31, 2-((1H-pyrrolo[2,3-b]pyridin-5-yl)oxy)-4-(4-(1-chloro-6,7,8,9-tetrahydro-5H-benzo[7]annulen-5-yl)piperazin-1-yl)-N-((4-((2-morpholinoethyl)amino)-3-nitrophenyl)sulfonyl)benzamide]	20 to 200	< 20	< 50	++ (30%<TGIRTV(%)<80%)	–	–	–
O=C(NS(=O)(=O)c1ccc(NCC2CCOCC2)c([N+](=O)[O-])c1)c1ccc(N2CCN([C@@H]3CCCCc4c(Cl)cccc43)CC2)cc1Oc1cnc2[nH]ccc2c1 [Compound 70, (R)-2-((1H-pyrrolo[2,3-b]pyridin-5-yl)oxy)-4-(4-(1-chloro-6,7,8,9-tetrahydro-5H-benzo[7]annulen-5-yl)piperazin-1-yl)-N-((3-nitro-4-(((tetrahydro-2H-pyran-4-yl)methyl)amino)phenyl)sulfonyl)benzamide]	–	< 20	< 50	–	+++ (TGIRTV(%)≥800)	–	–
O=C(NS(=O)(=O)c1ccc(NCC2CCOCC2)c([N+](=O)[O-])c1)c1ccc(N2CCC3(CC2)CN(C2CCCc4ccccc42)C3)cc1Oc1cnc2[nH]ccc2c1 (stereo not drawn) [Compound 94, 2-((1H-pyrrolo[2,3-b]pyridin-5-yl)oxy)-N-((3-nitro-4-(((tetrahydro-2H-pyran-4-yl)methyl)amino)phenyl)sulfonyl)-4-(2-(1,2,3,4-tetrahydronaphthalen-1-yl)-2,7-diazaspiro[3.5]nonan-7-yl)benzamide]	–	< 20	500 to 5000	–	–	< 30	–
CC(C)(C)OC(=O)N1CCC2(CC1)CC(CNc1ccc(S(=O)(=O)NC(=O)c3ccc(N4CCN([C@@H]5CCCCc6c(Cl)cccc65)CC4)cc3Oc3cnc4[nH]ccc4c3)cc1[N+](=O)[O-])C2 [Compound 100, tert-butyl (R)-2-(((4-(N-(2-((1H-pyrrolo[2,3-b]pyridin-5-yl)oxy)-4-(4-(1-chloro-6,7,8,9-tetrahydro-5H-benzo[7]annulen-5-yl)piperazin-1-yl)benzoyl)sulfamoyl)-2-nitrophenyl)amino)methyl)-7-azaspiro[3.5]nonane-7-carboxylate]	200 to 2000	< 20	50 to 500	–	–	< 30	–
O=C(NS(=O)(=O)c1ccc(NCC2CC3(CCNCC3)C2)c([N+](=O)[O-])c1)c1ccc(N2CCN([C@@H]3CCCCc4c(Cl)cccc43)CC2)cc1Oc1cnc2[nH]ccc2c1 [Compound 104, (R)-2-((1H-pyrrolo[2,3-b]pyridin-5-yl)oxy)-N-((4-(((7-azaspiro[3.5]nonan-2-yl)methyl)amino)-3-nitrophenyl)sulfonyl)-4-(4-(1-chloro-6,7,8,9-tetrahydro-5H-benzo[7]annulen-5-yl)piperazin-1-yl)benzamide]	< 20	< 20	< 50	–	–	< 30	+++ (TGIRTV(%)≥800)
CS(=O)(=O)N1CCC2(CC1)CC(CNc1ccc(S(=O)(=O)NC(=O)c3ccc(N4CCN([C@@H]5CCCCc6c(Cl)cccc65)CC4)cc3Oc3cnc4[nH]ccc4c3)cc1[N+](=O)[O-])C2 [Compound 107, (R)-2-((1H-pyrrolo[2,3-b]pyridin-5-yl)oxy)-4-(4-(1-chloro-6,7,8,9-tetrahydro-5H-benzo[7]annulen-5-yl)piperazin-1-yl)-N-((4-(((7-(methylsulfonyl)-7-azaspiro[3.5]nonan-2-yl)methyl)amino)-3-nitrophenyl)sulfonyl)benzamide]	20 to 200	< 20	< 50	–	–	31	–
CN1CCC2(CC1)CC(CNc1ccc(S(=O)(=O)NC(=O)c3ccc(N4CCN([C@@H]5CCCCc6c(Cl)cccc65)CC4)cc3Oc3cnc4[nH]ccc4c3)cc1[N+](=O)[O-])C2 [Compound 108, (R)-2-((1H-pyrrolo[2,3-b]pyridin-5-yl)oxy)-4-(4-(1-chloro-6,7,8,9-tetrahydro-5H-benzo[7]annulen-5-yl)piperazin-1-yl)-N-((4-(((7-methyl-7-azaspiro[3.5]nonan-2-yl)methyl)amino)-3-nitrophenyl)sulfonyl)benzamide]	< 20	< 20	< 50	–	–	< 30	–
CC(=O)NCCN1CCC2(CC1)CC(CNc1ccc(S(=O)(=O)NC(=O)c3ccc(N4CCN([C@@H]5CCCCc6c(Cl)cccc65)CC4)cc3Oc3cnc4[nH]ccc4c3)cc1[N+](=O)[O-])C2 [Compound 112, (R)-2-((1H-pyrrolo[2,3-b]pyridin-5-yl)oxy)-N-((4-(((7-(2-acetamidoethyl)-7-azaspiro[3.5]nonan-2-yl)methyl)amino)-3-nitrophenyl)sulfonyl)-4-(4-(1-chloro-6,7,8,9-tetrahydro-5H-benzo[7]annulen-5-yl)piperazin-1-yl)benzamide]	< 20	< 20	< 50	–	–	33	–
O=C(NS(=O)(=O)c1ccc(NCC2CC3(CCN(CC(F)(F)F)CC3)C2)c([N+](=O)[O-])c1)c1ccc(N2CCN([C@@H]3CCCCc4c(Cl)cccc43)CC2)cc1Oc1cnc2[nH]ccc2c1 [Compound 115, (R)-2-((1H-pyrrolo[2,3-b]pyridin-5-yl)oxy)-4-(4-(1-chloro-6,7,8,9-tetrahydro-5H-benzo[7]annulen-5-yl)piperazin-1-yl)-N-((3-nitro-4-(((7-(2,2,2-trifluoroethyl)-7-azaspiro[3.5]nonan-2-yl)methyl)amino)phenyl)sulfonyl)benzamide]	200 to 2000	< 20	50 to 500	–	–	< 30	–
CCOC(=O)CCN1CCC2(CC1)CC(CNc1ccc(S(=O)(=O)NC(=O)c3ccc(N4CCN([C@@H]5CCCCc6c(Cl)cccc65)CC4)cc3Oc3cnc4[nH]ccc4c3)cc1[N+](=O)[O-])C2 [Compound 130, ethyl (R)-3-(2-(((4-(N-(2-((1H-pyrrolo[2,3-b]pyridin-5-yl)oxy)-4-(4-(1-chloro-6,7,8,9-tetrahydro-5H-benzo[7]annulen-5-yl)piperazin-1-yl)benzoyl)sulfamoyl)-2-nitrophenyl)amino)methyl)-7-azaspiro[3.5]nonan-7-yl)propanoate]	< 20	< 20	< 50	–	–	–	–
CCN1CCC2(CC1)CC(CNc1ccc(S(=O)(=O)NC(=O)c3ccc(N4CCN([C@@H]5CCCCc6c(Cl)cccc65)CC4)cc3Oc3cnc4[nH]ccc4c3)cc1[N+](=O)[O-])C2 [Compound 131, (R)-2-((1H-pyrrolo[2,3-b]pyridin-5-yl)oxy)-4-(4-(1-chloro-6,7,8,9-tetrahydro-5H-benzo[7]annulen-5-yl)piperazin-1-yl)-N-((4-(((7-ethyl-7-azaspiro[3.5]nonan-2-yl)methyl)amino)-3-nitrophenyl)sulfonyl)benzamide]	< 20	< 20	< 50	–	–	–	–
CC1(C)CCC(CN2CCN(c3ccc(C(=O)NS(=O)(=O)c4ccc(NCC5CCOCC5)c([N+](=O)[O-])c4)c(Oc4cnc5[nH]ccc5c4)c3)CC2)=C(c2ccc(Cl)cc2)C1 [Venetoclax, reference compound]	–	–	–	–	–	49	–
